Results from US8058437B2, “(Pyrroloquinoxalinyl) pyrazinecarbohydrazide-oxalic acid co-crystal for treatment of cancer and other diseases” (Novelix Pharmaceuticals, Inc., priority 2008, dated 2011).
Where two headings read alike, the source gives them in different places.

Experiment: Pharmacokinetic experiments in rats (IV, oral suspension, oral solution)
Assay type: in vivo
Conditions: male, rat, plasma; for bioavailability: adjusted for dose, read-out: Bioavailability
Method: The oral suspension formulation was prepared by suspending the test article in 5% PEG-200/95% of a 0.5% solution of methylcellulose. The concentration of the test article was such that a dosing volume of 10 mL/kg delivered the intended dose level. The oral solution formulations of NVX-144 and NVX-412 were prepared by dissolving the test article in 10% by volume dimethyl acetamide, followed by 60% by volume PEG-400, and then adding slowly a solution of 30% Captisol® in 50 mM lactic acid to provide the remaining 30% of volume. The concentration of the test article was such that a dosing volume of 10 mL/kg delivered the intended dose level. The IV formulation of NVX-412 was prepared by dissolving the test article in 10% by volume dimethyl acetamide, followed by 10% by volume PEG-400, and then adding slowly a solution of 10% Captisol® in 50 mM lactic acid to provide the remaining 80% of volume. The concentration of the test articles was such that a dosing volume of 2.5 mL/kg delivered the intended dose level. The doses administered were based on the body weight of each animal taken shortly before dosing. The formulations were used immediately after preparation.
A total of 15 rats were assigned to the study. Five groups of three male rats each comprised the study. Each group was treated once by oral gavage or intravenous injection via the tail vein as specified in Table 3 below.
The animals were fasted overnight prior to dosing and the feed returned approximately 2 hours post-dosing. The dose for each animal was based on the most recent body weight. Oral doses were administered by gavage. Animals received 10 mL/kg per single oral dose. Intravenous doses were administered by tail vein injection. The dose for each animal was based on the most recent body weight. Animals were dosed at 2.5 mL/kg per single intravenous dose.
Blood was collected from the animals in Groups 1 through 5 for pharmacokinetic analysis. Approximately 0.3 mL of blood was collected in potassium EDTA tubes via the orbital plexus at four time points (30 minutes, 1 hour, 4 hours, and 8 hours post-dose) from each rat treated by the oral route, and the blood samples were processed to prepare plasma. Blood was collected at four time points (5 minutes, 30 minutes, 1 hour, and 2 hours post-dose) from each rat treated by the intravenous route, and the blood samples were processed to prepare plasma. Animals were terminated (without necropsy) following their final sample collection.
The whole blood samples were centrifuged (˜1500×g) for a minimum of 10 minutes in a refrigerated centrifuge (set at ˜5° C.). Plasma was prepared and transferred within 30 minutes of blood collection/centrifugation to appropriately labeled tubes. The tubes were then frozen and stored in the dark at ≦−70° C. until analysis. The plasma samples were analyzed by LC-MS/MS to determine the plasma concentrations of NVX-144 and NVX-412. Pharmacokinetic analysis of the plasma concentration data was conducted using non-compartmental analysis with WinNonlin Version 4.1.

[1] = iv, 5 mg/kg, IV 5 mg/kg, Mean of 3
[2] = iv, 5 mg/kg, IV 5 mg/kg, individual animals
[3] = oral, 20 mg/kg, Group 5, PO-Solution 20 mg/kg, Mean
[4] = po, 20 mg/kg, Group 3, PO-Suspension 20 mg/kg, individual animals
[5] = po, 20 mg/kg, Group 5, PO-Solution 20 mg/kg, Mean N=3

concentration at 0.083 h [1]: 1840 ng/mL
concentration at 0.083 h [2]: 1810 ng/mL
concentration at 0.5 h (iv, 5 mg/kg, IV 5 mg/kg, 0.5 h, Mean of 3): 477 ng/mL
concentration at 0.5 h (iv, 5 mg/kg, IV 5 mg/kg, 0.5 h, individual animals): 488 ng/mL
concentration at 1 h (iv, 5 mg/kg, IV 5 mg/kg, 1 h, Mean of 3): 273 ng/mL
concentration at 1 h (iv, 5 mg/kg, IV 5 mg/kg, 1 h, individual animals): 288 ng/mL
concentration at 2 h [1]: 165 ng/mL
concentration at 2 h [2]: 167 ng/mL
AUC [1]: 1070 ng·h/mL
AUC(0-inf) [1]: 1310 ng·h/mL
clearance [1]: 63.4 mL/min/kg
Cmax (iv, 5 mg/kg, IV 5 mg/kg, Mean of 3, read-out: Cmax): 1840 ng/mL
half-life (iv, 5 mg/kg, IV 5 mg/kg, Mean of 3, read-out: T ½ (converted)): 1 h
Tmax (iv, 5 mg/kg, IV 5 mg/kg, Mean of 3, read-out: Tmax): 0.083 h
Vd (iv, 5 mg/kg, IV 5 mg/kg, Mean of 3, read-out: Vss): 3.98 L/kg
AUC [2]: 1070 ng·h/mL
AUC(0-inf) [2]: 1320 ng·h/mL
clearance [2]: 63.3 mL/min/kg
Cmax (iv, 5 mg/kg, IV 5 mg/kg, individual animals, read-out: Cmax): 1810 ng/mL
half-life (iv, 5 mg/kg, IV 5 mg/kg, individual animals, read-out: T ½ (converted)): 1.01 h
Tmax (iv, 5 mg/kg, IV 5 mg/kg, individual animals, read-out: Tmax): 0.08 h
Vd (iv, 5 mg/kg, IV 5 mg/kg, individual animals, read-out: Vss): 3.96 L/kg
half-life (iv, 5 mg/kg, administered intravenously, range over animals, read-out: terminal plasma half-life): 0.93 to 1.15 h
concentration at 0.5 h (oral, 20 mg/kg, Group 3, PO-Suspension 20 mg/kg, 0.5 hr, Mean): 487 ng/mL
concentration at 0.5 h (oral, 20 mg/kg, Group 3, PO-Suspension 20 mg/kg, 0.5 hr, individual animals): 499 ng/mL
concentration at 1 h (oral, 20 mg/kg, Group 3, PO-Suspension 20 mg/kg, 1 hr, Mean): 525 ng/mL
concentration at 1 h (oral, 20 mg/kg, Group 3, PO-Suspension 20 mg/kg, 1 hr, individual animals): 525 ng/mL
concentration at 4 h (oral, 20 mg/kg, Group 3, PO-Suspension 20 mg/kg, Mean): 257 ng/mL
concentration at 4 h (oral, 20 mg/kg, Group 3, PO-Suspension 20 mg/kg, individual animals): 341 ng/mL
concentration at 8 h (oral, 20 mg/kg, Group 3, PO-Suspension 20 mg/kg, Mean, only 2 replicates available): 9.27 ng/mL
concentration at 0.5 h (oral, 20 mg/kg, Group 5, PO-Solution 20 mg/kg, 0.5 hr, Mean): 626 ng/mL
concentration at 0.5 h (oral, 20 mg/kg, Group 5, PO-Solution 20 mg/kg, 0.5 hr, individual animals): 732 ng/mL
concentration at 1 h (oral, 20 mg/kg, Group 5, PO-Solution 20 mg/kg, 1 hr, Mean): 601 ng/mL
concentration at 1 h (oral, 20 mg/kg, Group 5, PO-Solution 20 mg/kg, 1 hr, individual animals): 628 ng/mL
concentration at 4 h [3]: 243 ng/mL
concentration at 4 h (oral, 20 mg/kg, Group 5, PO-Solution 20 mg/kg, individual animals): 259 ng/mL
concentration at 8 h [3]: 16.2 ng/mL
AUC(0-inf) (po, 20 mg/kg, Group 3, PO-Suspension 20 mg/kg, Mean N=2): 2310 ng·h/mL
half-life (po, 20 mg/kg, Group 3, PO-Suspension 20 mg/kg, Mean N=2, read-out: T ½ (converted)): 1.2 h
bioavailability (po, 20 mg/kg, Group 3, PO-Suspension 20 mg/kg, Mean N=2, versus mean IV AUCINF): 43.9%
AUC (po, 20 mg/kg, Group 3, PO-Suspension 20 mg/kg, Mean N=3): 2070 ng·h/mL
Cmax (po, 20 mg/kg, Group 3, PO-Suspension 20 mg/kg, Mean N=3, read-out: Cmax): 525 ng/mL
Tmax (po, 20 mg/kg, Group 3, PO-Suspension 20 mg/kg, Mean N=3, read-out: Tmax): 1 h
AUC [4]: 2390 ng·h/mL
AUC(0-inf) [4]: 2410 ng·h/mL
Cmax (po, 20 mg/kg, Group 3, PO-Suspension 20 mg/kg, individual animals, read-out: Cmax): 525 ng/mL
half-life (po, 20 mg/kg, Group 3, PO-Suspension 20 mg/kg, individual animals, read-out: T ½ (converted)): 1.28 h
Tmax (po, 20 mg/kg, Group 3, PO-Suspension 20 mg/kg, individual animals, read-out: Tmax): 1 h
bioavailability (po, 20 mg/kg, Group 3, PO-Suspension 20 mg/kg, individual animals, versus mean IV AUCINF): 45.9%
AUC [5]: 2250 ng·h/mL
AUC(0-inf) [5]: 2290 ng·h/mL
Cmax (po, 20 mg/kg, Group 5, PO-Solution 20 mg/kg, Mean N=3, read-out: Cmax): 643 ng/mL
half-life (po, 20 mg/kg, Group 5, PO-Solution 20 mg/kg, Mean N=3, read-out: T ½ (converted)): 1.4 h
Tmax (po, 20 mg/kg, Group 5, PO-Solution 20 mg/kg, Mean N=3, read-out: Tmax): 0.67 h
bioavailability (po, 20 mg/kg, Group 5, PO-Solution 20 mg/kg, Mean N=3, versus mean IV AUCINF): 43.5%
Structure (SMILES): O=C(NNc1nc2cc(F)ccc2n2cccc12)c1cnccn1.O=C(O)C(=O)O [NVX-412, N′-(7-fluoropyrrolo[1,2a]quinoxalin-4-yl)pyrazine-2-carbohydrazide oxalic acid co-crystal]
